Reference: ChEMBL document CHEMBL3885861, “Open TG-GATES”

Species on record: Rattus norvegicus
Test: Open TG-GATES - Regimen: Single
Type: toxicity, organism-based, Sprague-Dawley
Design: regimen Single, gender Male, age 6 weeks
Details: in vivo, po, 10 mg/kg, route gavage, dose level Low; for APTT / Bas / Eos / Fbg / Hb / Ht / Lym / MCH / MCHC / MCV / Mono / Neu / PT / Plat / RBC / Ret / WBC: tissue Blood; for KIDNEY_L / KIDNEY_R / KIDNEY_TOTAL: tissue Kidney; for LIVER: tissue Liver; for A/G / ALP / ALT / AST / BUN / CRE / Ca / Cl / DBIL / GLC / IP / K / LDH / Na / PL / RALB / TBIL / TC / TG / TP / gamma-GTP: tissue Plasma

**Q.** Which results are given for `CCCc1cc(=O)[nH]c(=S)[nH]1` [PROPYLTHIOURACIL]?
**A.** TERMINAL_BW (3 h): 181.7 g; APTT (3 h): 15.5 s; Bas (3 h): 0%; Eos (3 h): 0.6%; Fbg (3 h): 202.8 mg/dL; Hb (3 h): 13.1 g/dL; Ht (3 h): 39.5%; Lym (3 h): 78.6%; MCH (3 h): 22.3 pg; MCHC (3 h): 33.3%; MCV (3 h): 66.9 fL; Mono (3 h): 8.6%; Neu (3 h): 12.4%; PT (3 h): 12.9 s; Plat (3 h): 102.8 x10_4/uL; RBC (3 h): 590.2 x10_4/ul; Ret (3 h): 10.1%; WBC (3 h): 92.2 x10_2/uL; KIDNEY_L (3 h): 0.9 g; KIDNEY_R (3 h): 0.9 g; KIDNEY_TOTAL (3 h): 1.7 g; LIVER (3 h): 8.4 g; A/G (3 h): 2; ALP (3 h): 982.6 IU/L; ALT (3 h): 41.6 IU/L; AST (3 h): 72.2 IU/L; BUN (3 h): 12 mg/dL; CRE (3 h): 0.4 mg/dL; Ca (3 h): 11.1 mg/dL; Cl (3 h): 105 meq/L; DBIL (3 h): 0.042 mg/dL; GLC (3 h): 191.4 mg/dL; IP (3 h): 10.3 mg/dL; K (3 h): 4.8 meq/L; LDH (3 h): 92 IU/L; Na (3 h): 138.6 meq/L; PL (3 h): 122.2 mg/dL; RALB (3 h): 3.6 g/dL; TBIL (3 h): 0.3 mg/dL; TC (3 h): 69.2 mg/dL; TG (3 h): 26.6 mg/dL; TP (3 h): 5.5 g/dL; gamma-GTP (3 h): 1.4 IU/L; TERMINAL_BW (6 h): 174.6 g; APTT (6 h): 15.6 s; Bas (6 h): 0%; Eos (6 h): 0.8%; Fbg (6 h): 208.2 mg/dL; Hb (6 h): 13.7 g/dL; Ht (6 h): 41.1%; Lym (6 h): 78.4%; MCH (6 h): 22 pg; MCHC (6 h): 33.3%; MCV (6 h): 66 fL; Mono (6 h): 7.4%; Neu (6 h): 13.4%; PT (6 h): 12.8 s; Plat (6 h): 100.8 x10_4/uL; RBC (6 h): 622.8 x10_4/ul; Ret (6 h): 8.9%; WBC (6 h): 89.5 x10_2/uL; KIDNEY_L (6 h): 0.8 g; KIDNEY_R (6 h): 0.8 g; KIDNEY_TOTAL (6 h): 1.7 g; LIVER (6 h): 7.7 g; A/G (6 h): 2; ALP (6 h): 969.6 IU/L; ALT (6 h): 33 IU/L; AST (6 h): 64.6 IU/L; BUN (6 h): 12.4 mg/dL; CRE (6 h): 0.5 mg/dL; Ca (6 h): 10.8 mg/dL; Cl (6 h): 105.4 meq/L; DBIL (6 h): 0.05 mg/dL; GLC (6 h): 181.8 mg/dL; IP (6 h): 10.6 mg/dL; K (6 h): 5.2 meq/L; LDH (6 h): 68 IU/L; Na (6 h): 138.4 meq/L; PL (6 h): 125.8 mg/dL; RALB (6 h): 3.6 g/dL; TBIL (6 h): 0.4 mg/dL; TC (6 h): 68.4 mg/dL; TG (6 h): 34.6 mg/dL; TP (6 h): 5.4 g/dL; gamma-GTP (6 h): 1.4 IU/L; TERMINAL_BW (9 h): 177.5 g; APTT (9 h): 16 s; Bas (9 h): 0%; Eos (9 h): 1.4%; Fbg (9 h): 214.2 mg/dL; Hb (9 h): 13.1 g/dL; Ht (9 h): 39.3%; Lym (9 h): 67%; MCH (9 h): 22 pg; MCHC (9 h): 33.3%; MCV (9 h): 66 fL; Mono (9 h): 11.8%; Neu (9 h): 19.6%; PT (9 h): 12.9 s; Plat (9 h): 109.3 x10_4/uL; RBC (9 h): 596 x10_4/ul; Ret (9 h): 10.2%; WBC (9 h): 70.1 x10_2/uL; KIDNEY_L (9 h): 0.8 g; KIDNEY_R (9 h): 0.9 g; KIDNEY_TOTAL (9 h): 1.7 g; LIVER (9 h): 7.7 g; A/G (9 h): 2.1; ALP (9 h): 791.6 IU/L; ALT (9 h): 32 IU/L; AST (9 h): 59.2 IU/L; BUN (9 h): 12.8 mg/dL; CRE (9 h): 0.4 mg/dL; Ca (9 h): 10.7 mg/dL; Cl (9 h): 106.4 meq/L; DBIL (9 h): 0.01 mg/dL; GLC (9 h): 192.6 mg/dL; IP (9 h): 10.7 mg/dL; K (9 h): 5.3 meq/L; LDH (9 h): 84.2 IU/L; Na (9 h): 138.2 meq/L; PL (9 h): 135 mg/dL; RALB (9 h): 3.6 g/dL; TBIL (9 h): 0.4 mg/dL; TC (9 h): 73.4 mg/dL; TG (9 h): 38.8 mg/dL; TP (9 h): 5.4 g/dL; gamma-GTP (9 h): 1.4 IU/L; TERMINAL_BW (24 h): 193.7 g; APTT (24 h): 16.3 s; Bas (24 h): 0%; Eos (24 h): 1%; Fbg (24 h): 209.4 mg/dL; Hb (24 h): 13 g/dL; Ht (24 h): 39.1%; Lym (24 h): 77.2%; MCH (24 h): 21.7 pg; MCHC (24 h): 33.1%; MCV (24 h): 65.4 fL; Mono (24 h): 7.2%; Neu (24 h): 14.8%; PT (24 h): 12.3 s; Plat (24 h): 102.3 x10_4/uL; RBC (24 h): 598.4 x10_4/ul; Ret (24 h): 9.7%; WBC (24 h): 90 x10_2/uL; KIDNEY_L (24 h): 0.9 g; KIDNEY_R (24 h): 0.9 g; KIDNEY_TOTAL (24 h): 1.8 g; LIVER (24 h): 9.5 g; A/G (24 h): 2.1; ALP (24 h): 908.8 IU/L; ALT (24 h): 39.8 IU/L; AST (24 h): 65.6 IU/L; BUN (24 h): 18.8 mg/dL; CRE (24 h): 0.5 mg/dL; Ca (24 h): 11 mg/dL; Cl (24 h): 106.6 meq/L; DBIL (24 h): 0.008 mg/dL; GLC (24 h): 182.6 mg/dL; IP (24 h): 7.3 mg/dL; K (24 h): 5.2 meq/L; LDH (24 h): 85.8 IU/L; Na (24 h): 139.4 meq/L; PL (24 h): 166.4 mg/dL; RALB (24 h): 3.8 g/dL; TBIL (24 h): 0.3 mg/dL; TC (24 h): 94.8 mg/dL; TG (24 h): 97.6 mg/dL; TP (24 h): 5.6 g/dL; gamma-GTP (24 h): 2.8 IU/L
